# Results: PMC8305076, “Comprehensive Evaluation of Biological Effects of Pentathiepins on Various Human Cancer Cell Lines and Insights into Their Mode of Action” (International Journal of Molecular Sciences, 2021)
# Read-outs that look alike come from different tables or passages of the source.
# Key:
# A-427 = assay: crystal violet proliferation assay; assay type: cell-based; details: Homo sapiens, 96 h, normoxia, read-out: GI50 CV mean
# Protocol: (§1) Distinct MTT cell viability and crystal violet cell proliferation assays were performed to assess the cytotoxicity of the compounds 1–6 on 14 human cancer cell lines. In the viability assay, cells with intact mitochondria and thus active dehydrogenases are competent to convert MTT to the corresponding insoluble formazan. The formazan can be photometrically detected after solubilization and allows for indirect conclusions about the viability of the cells as an IC50 value. In the crystal violet assay, cells are stained by the binding of the dye to the chromatin, thus allowing for a quantification of biomass that remains adherent after a treatment in comparison with a control after a specific time. Potency is defined as the growth inhibitory concentration 50% (GI50).
# (§2) The antiproliferative effect of the pentathiepins on human cancer cell lines was analyzed by crystal violet assay based on the protocol of a previous publication. […] After dissolving in ethanol, the optical density was measured. Here, 1000 cells (250 for LCLC-103H) in 0.1 mL of medium were seeded per well of a 96 well plate and incubated at standard conditions for 24 h prior to treatment to allow for adhesion of the cells. A serial dilution of the test compounds was prepared in medium, covering final concentrations from 10.0 to 0.04 µM and 0.1 mL of the working solution added to each well in triplicate. Additionally, samples for each cell line were seeded and directly fixed after 24 h to measure the cell density at the beginning of treatment (t0). Fixation was performed by replacing medium with 0.1 mL of a solution containing 1% glutaraldehyde in Dulbecco’s buffer (0.2 g/L KCl, 0.1 g/L MgSO4·7 H2O, 1.55 g/L Na2HPO4·7 H2O, 0.2 g/L KH2HPO4, and 8 g/L NaCl in water) for 20 min. Plates were stored in 0.1 mL of Dulbecco’s buffer until further processing. After 96 h of treatment, the same fixation process was applied to the plates containing cells and test compounds. To stain the cells, 0.1 mL of an aqueous solution of crystal violet (0.02%) was added per well for 20 min, then discarded and the plates afterwards rinsed in clear water for 30 min. The dye was extracted in 50 µL of ethanol per well during 2 h of shaking. The plates were read at λ = 570 nm using a SpectraMax 384plus (Molecular Devices, Sunnyvale, CA, USA), and the proliferation of the treatment conditions was calculated in relation to a solvent control sample after subtracting the background value of the T0-plates. The GI50 (half-maximal growth inhibitory concentration) was calculated via nonlinear regression followed by interpolation of the dose–response graphs in Prism 7 (GraphPad, San Diego, CA, USA).
# A2780cis = assay: crystal violet proliferation assay; assay type: cell-based; details: Homo sapiens, 96 h, normoxia, read-out: GI50 CV mean
# Protocol: as §1, §2
# A2780 = assay: crystal violet proliferation assay; assay type: cell-based; details: Homo sapiens, 96 h, normoxia, read-out: GI50 CV mean
# Protocol: as §1, §2
# DanG = assay: crystal violet proliferation assay; assay type: cell-based; details: Homo sapiens, 96 h, normoxia, read-out: GI50 CV mean
# Protocol: as §1, §2
# HAP-1.KO.GPx1 = assay: crystal violet proliferation assay; assay type: cell-based; details: Homo sapiens, 96 h, normoxia, read-out: GI50 CV mean
# Protocol: as §1, §2
# HAP-1 = assay: crystal violet proliferation assay; assay type: cell-based; details: Homo sapiens, HAP1, 96 h, normoxia, read-out: GI50 CV mean
# Protocol: as §1, §2
# Kyse-70 = assay: crystal violet proliferation assay; assay type: cell-based; details: Homo sapiens, 96 h, normoxia, read-out: GI50 CV mean
# Protocol: as §1, §2
# LCLC-103H = assay: crystal violet proliferation assay; assay type: cell-based; details: Homo sapiens, 96 h, normoxia, read-out: GI50 CV mean
# Protocol: as §1, §2
# PATU-8902 = assay: crystal violet proliferation assay; assay type: cell-based; details: Homo sapiens, 96 h, normoxia, read-out: GI50 CV mean
# Protocol: as §1, §2
# RT-112 = assay: crystal violet proliferation assay; assay type: cell-based; details: Homo sapiens, 96 h, normoxia, read-out: GI50 CV mean
# Protocol: as §1, §2
# RT-4 = assay: crystal violet proliferation assay; assay type: cell-based; details: Homo sapiens, 96 h, normoxia, read-out: GI50 CV mean
# Protocol: as §1, §2
# Siso = assay: crystal violet proliferation assay; assay type: cell-based; details: Homo sapiens, 96 h, normoxia, read-out: GI50 CV mean
# Protocol: as §1, §2
# YAPC = assay: crystal violet proliferation assay; assay type: cell-based; details: Homo sapiens, 96 h, normoxia, read-out: GI50 CV mean
# Protocol: as §1, §2
# MCF-7 = assay: crystal violet proliferation assay; assay type: cell-based, human; details: normoxia, read-out: GI50 CV mean
# Protocol: as §1, §2
# [1] = test system: HAP-1, HAP-1.KO.GPx1, and Siso; assay: alkaline Comet assay (summary); assay type: cell-based, human; parameters: key: no impact (0); weak impact (+); strong impact (++); details: summary grade
# Text: Next, the potential of the pentathiepins 1–6 to damage nuclear DNA was investigated in the cell lines HAP-1, HAP-1.KO.GPx1, and Siso, with different expression levels of GPx1 and CAT (see Figure 7), by Comet Assay (Figure 12) with representative images in the Supplementary Materials (Figure S48).
# With this assay, the intensity of DNA damage can be assessed on the level of a single cell, in case of the alkaline version detecting both single and double strand breaks as well as alkali-labile sites. The method presented here is an adaptation of the protocol published by Olive and Banath and based on the distinct electrophoretic mobility of damaged and intact genomic DNA. The latter has a low mobility; does thus not migrate in the electric field; and remains in a nucleoid shape after lysis, referred to as the comet head. In contrast, when strand breaks are created, free charged ends emerge and increase the electrophoretic mobility, prompting DNA segments to drift away from the comet head, thereby forming the so-called comet tail. As descriptor of still intact genomic DNA, the percentage of DNA in the comet head was selected. Per condition, 50,000 cells of either Siso, HAP-1, or HAP-1.KO.GPx1 were diluted in 1 mL of PBS and subsequently treated with either a 1% DMF aqueous solution as negative control, 20 µM of H2O2 as positive control, or 25 µM of pentathiepin for 15 min on ice to impair intracellular DNA repair mechanisms. Afterwards, 400 µL of the cell suspension was blended with 1.2 mL of a 1% low melting point agarose solution (40 °C) and smoothly distributed on agarose-precoated glass slides. Polymerization was finished after 3 min at RT, and the slides were horizontally submerged in alkaline lysis buffer (1.2 M NaCl, 0.1% N-lauryl-sarcosinate, 0.1 M Na-EDTA, 0.26 M NaOH) before storing them at 4 °C overnight. The slides were then rinsed three times in rinse/electrophoresis buffer (0.002 M Na-EDTA, 0.03 M NaOH) before electrophoretic separation was performed for 25 min at 0.6 V/cm. A neutralization step by adding distilled water was followed by staining the slides with 250 µL of an aqueous 10 µg/mL PI solution for 20 min. For visualization and image capturing, a DMi8 fluorescent microscope and LASX software (Leica Microsystems, Wetzlar, Germany) were used, and the comets scored with the help of CometScore2.0 (rexhoover.com). Per condition and replicate, at least 100 comets were analyzed to calculate a mean level of damage.
Structure (SMILES),GI50 (A2780cis) [nM],GI50 (A2780) [nM],"GI50 (MCF-7; Homo sapiens, MCF7, 96 h) [nM]",GI50 (MCF-7; 96 h) [nM],GI50 (A-427) [nM],GI50 (DanG) [nM],GI50 (HAP-1.KO.GPx1) [nM],GI50 (HAP-1) [nM],GI50 (Kyse-70) [nM],GI50 (LCLC-103H) [nM],GI50 (PATU-8902) [nM],GI50 (RT-112) [nM],GI50 (RT-4) [nM],GI50 (Siso) [nM],GI50 (YAPC) [nM],Comet formation [1]
"CCOc1c2c(c3ccc(C(=O)N(CC)CC)cn13)SSSSS2 [Compound 4, 6-Ethoxy-N,N’-diethyl-[1,2,3,4,5]pentathiepino[6,7-a]indolizine-9-carboxamide]",173,106,293,,310,459,116,84,284,306,471,469,445,381,608,++
"CCOc1c2c(c3ccc(C(=O)N4CCN(S(=O)(=O)c5ccc(C)cc5)CC4)cn13)SSSSS2 [Compound 6, (6-Ethoxy-[1,2,3,4,5]pentathiepino[6,7-a]indolizin-9-yl)(4-tosylpiperazinyl)methanone]",512,538,458,,352,711,524,507,481,646,952,1100,835,597,1170,+
"CCOc1c2c(c3cnc4[nH]c(-c5ccc(OC)cc5)cc4n13)SSSSS2 [Compound 1, 11-Ethoxy-2-(4-methoxyphenyl)-3H-[1,2,3,4,5]pentathiepino[6′,7′:3,4]pyrrolo[1,2-a]pyrrolo[2,3-e]pyrazine]",228,236,210,209,306,340,313,339,264,441,480,465,373,256,405,+

# The next lines start with results.
GI50 (A2780cis) [nM],GI50 (A2780) [nM],"GI50 (MCF-7; Homo sapiens, MCF7, 96 h) [nM]",GI50 (MCF-7; 96 h) [nM],Structure (SMILES),GI50 (A-427) [nM],GI50 (DanG) [nM],GI50 (HAP-1.KO.GPx1) [nM],GI50 (HAP-1) [nM],GI50 (Kyse-70) [nM],GI50 (LCLC-103H) [nM],GI50 (PATU-8902) [nM],GI50 (RT-112) [nM],GI50 (RT-4) [nM],GI50 (Siso) [nM],GI50 (YAPC) [nM],Comet formation [1]
234,164,384,,"CCOc1c2c(c3ccc(C(=O)N4CCCCC4)cn13)SSSSS2 [Compound 2, (6-Ethoxy-[1,2,3,4,5]pentathiepino[6,7-a]indolizin-9-yl)(piperidinyl)methanone]",401,644,173,161,409,552,659,559,1520,423,628,+
142,92,248,,"CCOc1c2c(c3ccc(C(=O)N4CCN(C(=O)c5ccc(F)cc5)CC4)cn13)SSSSS2 [Compound 5, (6-Ethoxy-[1,2,3,4,5]pentathiepino[6,7-a]indolizin-9-yl)(4-(4-fluorobenzoyl)piperazinyl)methanone]",320,398,144,120,181,232,340,384,358,369,411,++
88,55,153,,"CCOc1c2c(c3ccc(C(=O)N4CCOCC4)cn13)SSSSS2 [Compound 3, (6-Ethoxy-[1,2,3,4,5]pentathiepino[6,7-a]indolizin-9-yl)(morpholino)methanone]",142,382,68,64,142,128,257,246,193,166,350,++
